Measurements as given in patent publication US5824691A, “Guanidine derivatives as inhibitors of Na^+ /H^+ exchange in cells” (Fujisawa Pharmaceutical Co., Ltd., priority 1993, dated 1998).

Molecular target: T1, Na^+ /H^+ exchanger (Rattus norvegicus, UniProt P26431)
T1 construct: endogenous in cells; host or cells: thymocytes freshly isolated from the thymus of a male SD (Sprague-Dawley) rat
Assay: Inhibitory activity on Na^+ /H^+ exchange in cells (thymocyte swelling in sodium propionate medium)
Format: cell-based
Details: apparent Ki, Lineweaver-Burk plot; rate of swelling of thymocytes (male SD strain); sodium-propionate medium pH 6.8; 0.1% DMSO; 3-5 concentrations
Protocol: [2] Inhibitory activity on Na^+ /H^+ exchange in cells
Procedure was carried out according to a similar manner to the method described in Enzymology 173, 777 (1989).
One male SD strain weighing 250-300 g was sacrificed with the blow on the head. Then, the thymus was removed into ice-cold NaCl medium (140 mM sodium chloride, 1 mM potassium chloride, 1 mM calcium chloride, 1 mM magnesium chloride, 10 mM glucose and 20 mM N-2-hydroxyethylpiperazine-N'-2-ethanesulfonic acid (HEPES) - - - pH 7.3), cut in small fragments, and transferred to glass homogenizer. The cells were dissociated by gentle strokes, and the resulting suspension was filtrated through six layers of surgical gauze and the filtrate was centrifuged at 4° C. at 1000 g for 5 minutes. The pellet was resuspended in RPMI 1640 medium (pH 7.3) at room temperature to adjust final cell concentration (1×10^7 cells/ml).
This method detects the swelling that accompanies activation of Na^+ /H^+ exchanger in cells incubated with sodium propionate. Propionic acid rapidly penetrates through the membrane. […]
Cell sizing and counting were performed electrically with the Coulter Counter-Channelyzer (AT-II). […] Rate of Swelling (volume/min.) was measured by using 3-5 concentrations of test compound. Then, apparent Ki value of test compound was calculated by using Line weaver-Burk plot.

T1 sequence (P26431 whole entry): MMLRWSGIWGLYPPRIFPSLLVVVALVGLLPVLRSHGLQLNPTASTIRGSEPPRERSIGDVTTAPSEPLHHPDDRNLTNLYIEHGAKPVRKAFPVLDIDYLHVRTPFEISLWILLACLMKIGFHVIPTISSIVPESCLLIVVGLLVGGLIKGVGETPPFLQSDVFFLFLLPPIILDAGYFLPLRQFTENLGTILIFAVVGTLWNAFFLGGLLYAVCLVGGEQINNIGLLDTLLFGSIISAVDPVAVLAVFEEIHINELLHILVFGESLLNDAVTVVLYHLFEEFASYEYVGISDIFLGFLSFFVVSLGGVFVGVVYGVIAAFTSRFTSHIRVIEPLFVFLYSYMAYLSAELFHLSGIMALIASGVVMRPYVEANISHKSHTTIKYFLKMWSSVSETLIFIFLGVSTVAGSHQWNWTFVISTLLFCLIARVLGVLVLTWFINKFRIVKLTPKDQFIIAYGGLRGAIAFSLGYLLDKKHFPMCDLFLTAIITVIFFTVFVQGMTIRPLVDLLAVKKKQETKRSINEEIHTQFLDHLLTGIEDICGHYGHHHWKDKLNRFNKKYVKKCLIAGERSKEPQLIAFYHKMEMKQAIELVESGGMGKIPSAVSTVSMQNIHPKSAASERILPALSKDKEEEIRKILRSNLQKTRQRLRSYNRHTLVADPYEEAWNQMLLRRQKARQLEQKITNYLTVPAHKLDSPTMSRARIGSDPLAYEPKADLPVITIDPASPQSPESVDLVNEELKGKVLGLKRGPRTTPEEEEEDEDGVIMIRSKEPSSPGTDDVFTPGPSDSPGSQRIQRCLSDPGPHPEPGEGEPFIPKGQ

Ki: < 100 nM
Structure (SMILES): CS(=O)(=O)c1cc(C(=O)N=C(N)N)cc(-n2cccc2)c1 [Test compound (a), 2-[3-Methylsulfonyl-5-(pyrrol-1-yl)benzoyl]guanidine]
